This note sets out measurements from patent US20190359609A1, “BICYCLIC OGA INHIBITOR COMPOUNDS” (Janssen Pharmaceutica NV, priority 2016, published 2019).

In data set [1] the target is T1, recombinant human Meningioma Expressed Antigen 5 (MGEA5), also referred to as O-GlcNAcase (OGA) (Homo sapiens, UniProt O60502).
T1 construct: Full length OGA enzyme was purchased at OriGene (cat # TP322411); purchased OriGene TP322411
T1 sequence (O60502 1-916): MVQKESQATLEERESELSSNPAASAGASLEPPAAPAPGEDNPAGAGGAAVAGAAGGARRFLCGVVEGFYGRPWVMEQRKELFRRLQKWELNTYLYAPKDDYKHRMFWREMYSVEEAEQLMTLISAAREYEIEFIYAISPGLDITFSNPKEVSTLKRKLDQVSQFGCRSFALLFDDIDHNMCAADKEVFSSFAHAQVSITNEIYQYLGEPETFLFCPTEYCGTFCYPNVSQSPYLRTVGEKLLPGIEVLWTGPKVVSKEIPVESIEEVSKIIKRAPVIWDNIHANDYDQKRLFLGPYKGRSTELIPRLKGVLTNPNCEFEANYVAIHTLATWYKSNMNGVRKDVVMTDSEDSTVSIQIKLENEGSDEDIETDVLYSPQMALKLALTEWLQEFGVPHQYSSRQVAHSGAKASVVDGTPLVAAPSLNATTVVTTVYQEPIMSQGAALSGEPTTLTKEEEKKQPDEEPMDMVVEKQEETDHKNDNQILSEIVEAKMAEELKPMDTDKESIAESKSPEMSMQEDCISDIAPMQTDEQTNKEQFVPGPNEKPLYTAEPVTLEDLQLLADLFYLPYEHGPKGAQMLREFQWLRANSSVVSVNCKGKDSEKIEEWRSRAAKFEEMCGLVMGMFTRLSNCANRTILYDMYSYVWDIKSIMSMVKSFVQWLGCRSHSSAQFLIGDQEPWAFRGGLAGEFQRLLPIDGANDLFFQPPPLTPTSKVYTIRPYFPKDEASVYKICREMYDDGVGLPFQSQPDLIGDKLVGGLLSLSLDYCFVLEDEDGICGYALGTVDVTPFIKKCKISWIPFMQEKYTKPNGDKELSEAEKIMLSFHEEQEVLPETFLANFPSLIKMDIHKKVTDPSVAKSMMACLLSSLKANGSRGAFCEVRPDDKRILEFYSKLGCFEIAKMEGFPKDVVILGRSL
In words: OGA biochemical assay: inhibition of FM-GlcNAc hydrolysis, fluorescence (protocol A 10 nM OGA, 1 h; protocol B 2 nM OGA, 6 h). The note with it: for IC50: read-out: Enzymatic hOGA, pIC50 (converted); for Emax: read-out: Enzymatic Emax (%). The source says: The assay is based on the inhibition of the hydrolysis of fluorescein mono-B-D-N-Acetyl-Glucosamine (FM-GlcNAc) (Mariappa et al. 2015, Biochem J 470:255) by the recombinant human Meningioma Expressed Antigen 5 (MGEA5), also referred to as 0-GlcNAcase (OGA). The hydrolysis FM-GlcNAc (Marker Gene technologies, cat # M1485) results in the formation of β-D-N-glucosamineacetate and fluorescein. The fluorescence of the latter can be measured at excitation wavelength 485 nm and emission wavelength 538 nm. An increase in enzyme activity results in an increase in fluorescence signal. Full length OGA enzyme was purchased at OriGene (cat # TP322411). The enzyme was stored in 25 mM Tris.HCl, pH 7.3, 100 mM glycine, 10% glycerol at −20° C. Thiamet G and GlcNAcStatin were tested as reference compounds (Yuzwa et al. 2008 Nature Chemical Biology 4:483; Yuzwa et al. 2012 Nature Chemical Biology 8:393). The assay was performed in 200 mM Citrate/phosphate buffer supplemented with 0.005% Tween-20. 35.6 g Na2HPO4 2 H2O (Sigma, # C0759) were dissolved in 1 L water to obtain a 200 mM solution. 19.2 g citric acid (Merck, #1.06580) was dissolved in 1 L water to obtain a 100 mM solution. pH of the sodiumphosphate solution was adjusted with the citric acid solution to 7.2. The buffer to stop the reaction consists of a 500 mM Carbonate buffer, pH 11.0. 734 mg FM-GlcNAc were dissolved in 5.48 mL DMSO to obtain a 250 mM solution and was stored at −20° C. OGA was used at a 10 nM (protocol A) or 2 nM (protocol B) concentration and FM-GlcNAc at a 100 uM final concentration. Dilutions were prepared in assay buffer.
50 nl of a compound dissolved in DMSO was dispensed on Black Proxiplate™ 384 Plus Assay plates (Perkin Elmer, #6008269) and 3 μl fl-OGA enzyme mix added subsequently. Plates were pre-incubated for 60 min at room temperature and then 2 μl FM-GlcNAc substrate mix added. […] Plates were briefly centrifuged for 1 min at 1000 rpm and incubate at room temperature for 1 h (10 nM OGA, protocol A) or 6 h (2 nM OGA, protocol B). To stop the reaction 5 μl STOP buffer were added and plates centrifuge again 1 min at 1000 rpm. Fluorescence was quantified in the Thermo Scientific Fluoroskan Ascent or the PerkinElmer EnVision with excitation wavelength 485 nm and emission wavelength 538 nm.
For analysis a best-fit curve is fitted by a minimum sum of squares method. From this an IC50 value and Hill coefficient was obtained. High control (no inhibitor) and low control (saturating concentrations of standard inhibitor) were used to define the minimum and maximum values.

For another data set, the target named is T2, OGA (Homo sapiens, UniProt O60502).
T2 construct: endogenous in cells; host or cells: HEK293 cells inducible for P301L mutant human Tau (2N4R)
T2 sequence (O60502 1-916): T1 sequence (O60502 1-916)
Description: OGA cellular assay: ICC detection of O-GlcNAcylated proteins in HEK293 cells inducible for P301L mutant human Tau. It is filed as cell-based. As to conditions: 6 hours incubation; for EC50: read-out: Cellular hOGA, pEC50 (converted). On the procedure: HEK293 cells inducible for P301L mutant human Tau (isoform 2N4R) were established at Janssen. Thiamet-G was used for both plate validation (high control) and as reference compound (reference EC50 assay validation). OGA inhibition is evaluated through the immunocytochemical (ICC) detection of O-GlcNAcylated proteins by the use of a monoclonal antibody (CTD110.6; Cell Signaling, #9875) detecting O-GlcNAcylated residues as previously described (Dorfmueller et al. 2010 Chemistry & biology, 17:1250).
Inhibition of OGA will result in an increase of 0-GlcNAcylated protein levels resulting in an increased signal in the experiment. Cell nuclei are stained with Hoechst to give a cell culture quality control and a rough estimate of immediate compounds toxicity, if any. ICC pictures are imaged with a Perkin Elmer Opera Phenix plate microscope and quantified with the provided software Perkin Elmer Harmony 4.1.
Cells were propagated in DMEM high Glucose (Sigma, #D5796) following standard procedures. 2 days before the cell assay cells are split, counted and seeded in Poly-D-Lysine (PDL) coated 96-wells (Greiner, #655946) plate at a cell density of 12,000 cells per cm^2 (4,000 cells per well) in 100 μl of Assay Medium (Low Glucose medium is used to reduce basal levels of GlcNAcylation) (Park et al. 2014 The Journal of biological chemistry 289:13519). At the day of compound test medium from assay plates was removed and replenished with 90 μl of fresh Assay Medium. 10 μl of compounds at a 10fold final concentration were added to the wells. Plates were centrifuged shortly before incubation in the cell incubator for 6 hours. DMSO concentration was set to 0.2%. Medium is discarded by applying vacuum. For staining of cells medium was removed and cells washed once with 100 μl D-PBS (Sigma, #D8537). From next step onwards unless other stated assay volume was always 50 μl and incubation was performed without agitation and at room temperature. Cells were fixed in 50 μl of a 4% paraformaldehyde (PFA, Alpha aesar, #043368) PBS solution for 15 minutes at room temperature. […] Before analysis samples were washed 2 times manually for 5 minutes in ICC base buffer.
Imaging is performed using Perkin Elmer Phenix Opera using a water 20× objective and recording 9 fields per well. Intensity readout at 488 nm is used as a measure of O-GlcNAcylation level of total proteins in wells. To assess potential toxicity of compounds nuclei were counted using the Hoechst staining. IC50-values are calculated using parametric non-linear regression model fitting. As a maximum inhibition Thiamet G at a 200 uM concentration is present on each plate. In addition, a concentration response of Thiamet G is calculated on each plate.

The target in a further data set is PDE2 (Homo sapiens, UniProt O00408). In words: PDE2 inhibitory activity (protocol as described in WO2017/076900, page 28). It is filed as biochemical. The note with it: screening concentration of 10 μM; read-out: PDE2 inhibitory activity, % effect.
Setting [2] is: Enzymatic protocol A (10 nM OGA, 1 h).
[3] abbreviates: Enzymatic protocol B (2 nM OGA, 6 h).

Usually melting point stands for the temperature of the solid-liquid transition. As usually defined, the Emax is the greatest response seen or fitted, relative to the assay's reference.

Where a name gives a salt, the structure may show the parent alone. Read-outs that look alike come from different tables or passages of the source.

Sequence of PDE2 (O00408 whole entry): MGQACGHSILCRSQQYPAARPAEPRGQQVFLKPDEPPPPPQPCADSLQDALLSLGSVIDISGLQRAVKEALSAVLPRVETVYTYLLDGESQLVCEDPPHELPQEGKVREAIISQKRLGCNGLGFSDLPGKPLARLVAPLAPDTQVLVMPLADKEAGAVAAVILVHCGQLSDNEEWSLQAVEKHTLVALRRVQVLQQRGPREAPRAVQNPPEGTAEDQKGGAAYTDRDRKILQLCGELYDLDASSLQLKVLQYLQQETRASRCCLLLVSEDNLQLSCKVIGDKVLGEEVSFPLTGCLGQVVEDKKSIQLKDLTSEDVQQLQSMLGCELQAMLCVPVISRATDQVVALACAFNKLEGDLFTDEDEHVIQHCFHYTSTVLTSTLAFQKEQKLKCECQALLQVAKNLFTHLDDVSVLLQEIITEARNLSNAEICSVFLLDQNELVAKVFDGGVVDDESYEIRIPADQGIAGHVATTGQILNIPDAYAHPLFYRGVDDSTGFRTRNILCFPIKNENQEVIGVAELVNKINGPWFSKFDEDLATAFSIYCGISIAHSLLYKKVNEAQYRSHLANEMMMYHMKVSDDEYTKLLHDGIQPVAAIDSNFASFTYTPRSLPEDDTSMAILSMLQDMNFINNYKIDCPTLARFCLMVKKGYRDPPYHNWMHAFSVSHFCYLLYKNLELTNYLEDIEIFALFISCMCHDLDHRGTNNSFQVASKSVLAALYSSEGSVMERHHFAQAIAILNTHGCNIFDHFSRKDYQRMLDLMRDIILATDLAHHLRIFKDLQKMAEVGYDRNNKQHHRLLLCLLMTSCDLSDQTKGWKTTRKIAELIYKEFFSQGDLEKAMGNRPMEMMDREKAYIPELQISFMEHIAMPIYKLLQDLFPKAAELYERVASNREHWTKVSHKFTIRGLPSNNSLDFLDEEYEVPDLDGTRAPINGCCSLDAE

In turn, `c1cnc2cc(C3CCCN(Cc4ccc5c(c4)OCCO5)C3)[nH]c2c1` (stereo not shown) (as salt: HCl) [Compound 39] gave a melting point of 178.2 °C.

Compound `CC(=O)Nc1ncc(CN2CCCC(c3nc4ncccc4[nH]3)C2)s1` (single isomer, unassigned) [Compound 18] showed a melting point of 223.94 °C. For the same compound, in data set [1] (setting [2]), the “Enzymatic Emax (%)” value is given as 55.6% and the IC50 was 24500 nM.

With `CC(=O)Nc1ncc(CN2CCCC(c3nc4ncccc4[nH]3)C2)s1` (single isomer, unassigned) [Compound 19], the melting point was 228.2 °C. Further, on OGA, the Emax was found to be 109% and the EC50 is 851 nM. Further, in data set [1] (setting [2]), the “Enzymatic Emax (%)” value amounted to 102% and the IC50 is 148 nM.

Turning to `CC(=O)Nc1ncc(S(=O)(=O)N2CCCC(c3cc4ncccc4[nH]3)C2)s1` (stereo not shown) [Compound 2], the inhibition at 10 µM at PDE2 was 33.1%. Moreover, in data set [1] (setting [2]), the Emax was 102% and the IC50 is 263 nM.

Turning to `CCC(=O)Nc1ncc(CN2CCCC(c3cc4ncccc4[nH]3)C2)s1` (stereo not shown) [Compound 9], the melting point amounted to 235 °C. For the same compound, in data set [1] (setting [2]), the maximum response (Emax) is 98% and the IC50 was 204 nM.

Regarding `c1cnc2cc(C3CCCN(Cc4ccc5c(c4)OCCO5)C3)[nH]c2c1` (stereo not shown) [Compound 39], at OGA, the Emax came to 90.3% and the EC50 was 3630 nM. For the same compound, in data set [1] (setting [2]), the Emax amounted to 98.2% and the IC50 was 617 nM.

Take `CC(c1ccc2c(c1)OCCO2)N1CCCC(c2cc3ncccc3n2C)C1` (stereo not shown) [Compound 40]: at OGA, the maximum response (Emax) stood at 75.1% and the EC50 was 955 nM. Also, in data set [1] (setting [3]), the Emax is 102% and the IC50 was 61.7 nM.

In turn, `O=C(CN1CCCC(c2cc3ncccc3[nH]2)C1)N1CCCC1` (stereo not shown) [Compound 49] gave a melting point of 179.9 °C. Besides, on OGA, the Emax was 7.2% and the EC50 was above 10000 nM. In data set [1] (setting [3]), the Emax is 80.5% and the IC50 was 2630 nM.

Compound `CC(=O)Nc1ncc(CN2CC[C@@H](Cc3cc4ncccc4n3C)C2)s1` [Compound 58] had a melting point of 187.16 °C. In data set [1] (setting [3]), the maximal effect (Emax) was determined as 102% and the IC50 was 2.69 nM.

Consider `CC(=O)Nc1ncc(CN2CC[C@H](Cc3cc4ncccc4n3C)C2)s1` [Compound 59], for which the melting point stood at 190.09 °C. In data set [1] (setting [3]), the Emax came out at 99.7% and the IC50 was 1.17 nM.

In turn, `CC(=O)Nc1ncc(CN2CCC(Cc3cc4cccnc4n3C)C2)s1` (stereo not shown) [Compound 60] showed a melting point of 153.79 °C. In addition, in data set [1] (setting [3]), the Emax came to 99.2% and the IC50 is 9.33 nM.

Regarding `CC(=O)Nc1ncc(CN2CCC(Cc3cc4cnccc4n3C)C2)s1` (stereo not shown) [Compound 61], the melting point was 195.06 °C. Also, in data set [1] (setting [3]), the Emax was 100% and the IC50 is 1.51 nM.
